Laboratory results as given in ChEMBL document CHEMBL1158201, “Barbamide, a chlorinated metabolite with molluscicidal activity from the Caribbean cyanobacterium Lyngbya majuscula” (J Nat Prod, 1996).
≈ marks a conversion by molar mass, not a printed value.

Tests used:
Format in all cases: organism-based
Settings in all cases: in vivo
[1] = Ichthyotoxicity in Carassius auratus
[2] = Toxicity in Artemia salina
Biomphalaria glabrata = experiment: Molluscicidal activity against Biomphalaria glabrata after 24 hrs

Compound	LC50 [1] [µg/mL]	further results
C=C(CCNC(=O)CC/C=C/C[C@H](CCCCCCC)OC)[C@@]12O[C@@H]1CC=C(C)C2=O [MALYNGAMIDE H]	5 (≈ 11.6 µM)	–
C=CC[C@@H](CC/C(C)=C/C=C/CC/C=C\[C@@H]1CSC([C@@H]2C[C@@H]2C)=N1)OC [CURACIN A]	–	LC50 [2]: 0.0025 µg/mL (≈ 0.00669 µM)
CO/C(=C/C(=O)N(C)C(Cc1ccccc1)c1nccs1)CC(C)C(Cl)(Cl)Cl (centres undefined) [BARBAMIDE]	–	LC100 (Biomphalaria glabrata): 100 µg/mL
C=C1CC(=O)N[C@@H](C)C(=O)N(C)[C@@H](C(C)C)C(=O)NCC(=O)O[C@@H](/C(C)=C/C(C)=C/C(C)(C)C)[C@@H]1C [ANTILLATOXIN]	0.05 (≈ 0.0993 µM)	–
